# ChEMBL document CHEMBL1146174, “Synthesis of antimicrobial 2,9,10-trisubstituted-6-oxo-7,12-dihydro-chromeno[3,4-b]quinoxalines” (2006)
# Assays:
# [1] = test system: Aspergillus flavus; assay: Antifungal activity against Aspergillus flavus by measuring zone of inhibition at 100 ug/ml after 48 hrs; type: functional; details: read-out: IZ
# [2] = test system: Escherichia coli; assay: Antibacterial activity against Escherichia coli by measuring zone of inhibition at 100 ug/ml after 24 hrs; type: functional; details: read-out: IZ
# [3] = test system: Fusarium oxysporum; assay: Antifungal activity against Fusarium oxysporum by measuring zone of inhibition at 100 ug/ml after 48 hrs; type: functional; details: read-out: IZ
# [4] = test system: Pseudomonas aeruginosa; assay: Antibacterial activity against Pseudomonas aeruginos by measuring zone of inhibition at 100 ug/ml after 24 hrs; type: functional; details: read-out: IZ
# [5] = test system: Bacillus subtilis; assay: Antibacterial activity against Bacillus subtilis by measuring zone of inhibition at 100 ug/ml after 24 hrs; type: functional; details: read-out: IZ
# [6] = test system: Staphylococcus aureus; assay: Antibacterial activity against Staphylococcus aureus by measuring zone of inhibition at 100 ug/ml after 24 hrs; type: functional; details: read-out: IZ
# [7] = test system: Aspergillus flavus; assay: Antifungal activity against Aspergillus flavus by measuring zone of inhibition at 30 ug after 48 hrs; type: functional, organism-based
# [8] = test system: Fusarium oxysporum; assay: Antifungal activity against Fusarium oxysporum by measuring zone of inhibition at 30 ug after 48 hrs; type: functional, organism-based
# [9] = test system: Staphylococcus aureus; assay: Antibacterial activity against Staphylococcus aureus by measuring zone of inhibition at 30 ug after 24 hrs; type: functional; details: read-out: IZ
# [10] = test system: Pseudomonas aeruginosa; assay: Antibacterial activity against Pseudomonase aeruginosa by measuring zone of inhibition at 30 ug after 24 hrs; type: functional; details: read-out: IZ
# [11] = test system: Escherichia coli; assay: Antibacterial activity against Escherichia coli by measuring zone of inhibition at 30 ug after 24 hrs; type: functional; details: read-out: IZ
# [12] = test system: Bacillus subtilis; assay: Antibacterial activity against Bacillus subtilis by measuring zone of inhibition at 30 ug after 24 hrs; type: functional; details: read-out: IZ
Molecule,zone of inhibition at 100 µg/mL [1] [mm],zone of inhibition at 100 µg/mL [2] [mm],zone of inhibition at 100 µg/mL [3] [mm],zone of inhibition at 100 µg/mL [4] [mm],zone of inhibition at 100 µg/mL [5] [mm],zone of inhibition at 100 µg/mL [6] [mm],inhibition zone (IZ) [7] [mm],inhibition zone (IZ) [8] [mm],zone of inhibition at 30 µg/disc [9] [mm],zone of inhibition at 30 µg/disc [10] [mm],zone of inhibition at 30 µg/disc [11] [mm],zone of inhibition at 30 µg/disc [12] [mm]
Cc1cc2c(cc1C)Nc1c(c(=O)oc3ccccc13)N2,2,3,3,4,2,4,,,,,,
O=c1oc2ccc(Br)cc2c2c1Nc1ccccc1N2,4,5,5,6,4,8,,,,,,
COc1ccc2oc(=O)c3c(c2c1)Nc1ccccc1N3,5,6,6,7,5,8,,,,,,
O=c1oc2ccc(F)cc2c2c1Nc1ccccc1N2,2,3,3,4,3,5,,,,,,
O=c1oc2ccccc2c2c1Nc1ccccc1N2,2,2,3,3,1,2,,,,,,
Cc1ccc2oc(=O)c3c(c2c1)Nc1ccccc1N3,2,3,2,4,2,3,,,,,,
O=c1oc2ccc(Cl)cc2c2c1Nc1ccccc1N2,3,4,4,5,3,6,,,,,,
NYSTATIN,,,,,,,9,8,,,,
CN[C@@H]1[C@H](O[C@H]2[C@H](O[C@H]3[C@H](O)[C@@H](O)[C@H](N=C(N)N)[C@@H](O)[C@@H]3N=C(N)N)O[C@@H](C)[C@]2(O)C=O)O[C@@H](CO)[C@H](O)[C@H]1O [STREPTOMYCIN],,,,,,,,,12,10,11,10
Cc1cc2c(cc1C)Nc1c(c(=O)oc3ccc(F)cc13)N2,3,7,4,8,5,6,,,,,,
Cc1ccc2oc(=O)c3c(c2c1)Nc1cc(C)c(C)cc1N3,2,4,4,5,3,5,,,,,,
COc1ccc2oc(=O)c3c(c2c1)Nc1cc(C)c(C)cc1N3,6,9,8,10,9,11,,,,,,
Cc1cc2c(cc1C)Nc1c(c(=O)oc3ccc(Br)cc13)N2,4,6,5,7,7,9,,,,,,
Cc1cc2c(cc1C)Nc1c(c(=O)oc3ccc([N+](=O)[O-])cc13)N2,4,4,4,5,4,5,,,,,,
O=c1oc2ccc([N+](=O)[O-])cc2c2c1Nc1ccccc1N2,4,4,3,4,4,5,,,,,,
Cc1cc2c(cc1C)Nc1c(c(=O)oc3ccc(Cl)cc13)N2,3,8,4,9,5,7,,,,,,
